Experimental data reported in patent publication US20240116946A1 (Gilead Sciences, Inc., priority 2022, published 2024).
pEC50, pIC50: −log10 of the molar value. Read-outs that look alike come from different tables or passages of the source.

Tests used:
[1] = molecular target: recombinant SARS-CoV-2 Main protease (Mpro) (Severe acute respiratory syndrome coronavirus 2 (2019-nCoV) (SARS-CoV-2), UniProt P0DTD1); assay: Cov Mpro Biochemical IC50 Assay; conditions: recombinant SARS-CoV-2 Mpro 7.5 nM, fluorogenic peptide substrate 40 μM; read-out: MPro IC50
[2] = test system: SARS-CoV-2-NLuc; assay: microbe, parasite or virus in culture; format: cell-based, SARS Coronavirus 2
[3] = Severe acute respiratory syndrome coronavirus, 48 h, read-out: MPro EC50
[4] = Severe acute respiratory syndrome coronavirus, 48 h; read-out: MPro EC50

SMILES | pIC50 [1] | pEC50 [2, 3] | pEC50 [2, 4]
COc1cc(-c2cc3c(s2)c(=O)n(-c2cncc4[nH]nc(C)c24)c(=O)n3CCC#N)c(Cl)cc1F [Example 768, 3-(6-(2-chloro-4-fluoro-5-methoxyphenyl)-3-(3-methyl-1H-pyrazolo[3,4-c]pyridin-4-yl)-2,4-dioxo-3,4-dihydrothieno[3,2-d]pyrimidin-1(2H)-yl)propanenitrile] | 8.28 | 8.15 | 
Cn1ncc2cncc(-n3c(=O)c4sc(-c5ccc(F)cc5Cl)cc4n(CCC#N)c3=O)c21 [Example 769, 3-(6-(2-chloro-4-fluorophenyl)-3-(1-methyl-1H-pyrazolo[4,3-c]pyridin-7-yl)-2,4-dioxo-3,4-dihydrothieno[3,2-d]pyrimidin-1(2H)-yl)propanenitrile] | 8.07 |  | 7.81
COc1cc(-c2cc3c(s2)c(=O)n(-c2cc(C)cnc2F)c(=O)n3CCC#N)c(Cl)cc1F [Example 770] | 8.21 |  | 8.32
Cc1cnc(F)c(-n2c(=O)c3sc(-c4ccccc4Cl)cc3n(CCC#N)c2=O)c1 [Example 771] | 8.43 |  | 8.22
Cn1nnc2cncc(-n3c(=O)c4sc(-c5ccccc5Cl)cc4n(CCC#N)c3=O)c21 [Example 772] | 7.81 |  | 7.33
Cn1nnc2cncc(-n3c(=O)c4sc(-c5ccc(F)cc5Cl)cc4n(CCC#N)c3=O)c21 [Example 773, 3-[6-(2-chloro-4-fluoro-phenyl)-3-(1-methyltriazolo[4,5-c]pyridin-7-yl)-2,4-dioxo-thieno[3,2-d]pyrimidin-1-yl]propanenitrile] | 7.59 | 7.17 | 
Cn1ncc2cncc(-n3c(=O)c4sc(-c5cc(Cl)ccc5C#N)cc4n(CCC#N)c3=O)c21 [Example 774] | 8.20 | 7.71 | 
Cn1ncc2cncc(-n3c(=O)c4sc(-c5ccc(C(F)(F)F)cc5C#N)cc4n(CCC#N)c3=O)c21 [Example 775] | 6.22 | < 6.00 | 
COc1cc(-c2cc3c(s2)c(=O)n(-c2cncc4cnn(C)c24)c(=O)n3CCC#N)c(C#N)cn1 [Example 776] | 6.63 | 6.24 | 
COc1cnc(C#N)c(-c2cc3c(s2)c(=O)n(-c2cncc4cnn(C)c24)c(=O)n3CCC#N)c1 [Example 777] | 7.61 | 6.60 | 
Cn1ncc2cncc(-n3c(=O)c4sc(-c5cc(F)ccc5C#N)cc4n(CCC#N)c3=O)c21 [Example 778] | 7.72 | 6.75 | 
Cc1cc(-c2cc3c(s2)c(=O)n(-c2cncc4cnn(C)c24)c(=O)n3CCC#N)c(C#N)cc1F [Example 779] | 7.62 | 7.17 | 
COc1cc(-c2cc3c(s2)c(=O)n(-c2cnc(F)c(C)c2)c(=O)n3CCC#N)c(C#N)cc1F [Example 780] | 7.76 | 7.27 | 
Cn1ncc2cncc(-n3c(=O)c4sc(-c5ccccc5Cl)cc4n(CCC#N)c3=O)c21 [Example 781] | 8.30 | 8.32 | 
Cn1ncc2cncc(-n3c(=O)c4sc(-c5ccccc5C#N)cc4n(CCC#N)c3=O)c21 [Example 782, 2-(1-(2-cyanoethyl)-3-(1-methyl-1H-pyrazolo[4,3-c]pyridin-7-yl)-2,4-dioxo-1,2,3,4-tetrahydrothieno[3,2-d]pyrimidin-6-yl)benzonitrile] | 7.81 | 7.40 | 
Cc1cccc(C#N)c1-c1cc2c(s1)c(=O)n(-c1cncc3cnn(C)c13)c(=O)n2CCC#N [Example 783] | 6.70 | 6.34 | 
Cc1ccc(C#N)c(-c2cc3c(s2)c(=O)n(-c2cncc4cnn(C)c24)c(=O)n3CCC#N)c1 [Example 784] | 7.97 | 7.33 | 
Cn1ncc2cncc(-n3c(=O)c4sc(-c5ccc(F)cc5C#N)cc4n(CCC#N)c3=O)c21 [Example 785] | 7.42 | 6.86 | 
Cc1cc(C#N)c(-c2cc3c(s2)c(=O)n(-c2cncc4cnn(C)c24)c(=O)n3CCC#N)cc1F [Example 786] | 7.55 | 6.78 | 
N#CCCn1c(=O)n(-c2cncc(Cl)c2)c(=O)c2sc(-c3ccc(F)cc3Cl)cc21 [Example 787] | 7.89 | 7.48 | 
N#CCCn1c(=O)n(-c2cncc(F)c2)c(=O)c2sc(-c3ccc(F)cc3Cl)cc21 [Example 788] | 7.45 | 7.28 | 
Cn1ncc2cncc(-n3c(=O)c4sc(-c5cc(F)ccc5Cl)cc4n(CCC#N)c3=O)c21 [Example 789] | 8.24 | 8.32 | 
Cn1ncc2cncc(-n3c(=O)c4sc(-c5cc(F)c(F)cc5Cl)cc4n(CCC#N)c3=O)c21 [Example 790, 3-[6-(2-chloro-4,5-difluoro-phenyl)-3-(1-methylpyrazolo[4,3-c]pyridin-7-yl)-2,4-dioxo-thieno[3,2-d]pyrimidin-1-yl]propanenitrile] | 7.90 | 7.84 | 
COc1cc(Cl)c(-c2cc3c(s2)c(=O)n(-c2cncc4cnn(C)c24)c(=O)n3CCC#N)cc1Cl [Example 791] | 8.16 | 8.04 | 
COc1cc(Cl)c(-c2cc3c(s2)c(=O)n(-c2cncc4cnn(C)c24)c(=O)n3CCC#N)cc1F [Example 792] | 8.08 | 7.91 | 
Cn1ncc2cncc(-n3c(=O)c4sc(-c5cc(Cl)ccc5Cl)cc4n(CCC#N)c3=O)c21 [Example 793] | 8.18 | 8.30 | 

SMILES | pIC50 [1] | pEC50 [2, 3] | pEC50 [2, 4]
Cn1ncc2cncc(-n3c(=O)c4sc(-c5cc(F)c(F)cc5C#N)cc4n(CCC#N)c3=O)c21 [Example 794] | 7.50 | < 6.00 | 
COc1cc(C#N)c(-c2cc3c(s2)c(=O)n(-c2cncc4cnn(C)c24)c(=O)n3CCC#N)cc1F [Example 795] | 7.70 | 7.06 | 
Cn1nnc2cncc(-n3c(=O)c4sc(-c5cc(F)c(F)cc5Cl)cc4n(CCC#N)c3=O)c21 [Example 796] | 7.39 |  | 6.91
Cc1c2c(-n3c(=O)c4sc(-c5ccc(F)cc5Cl)cc4n(CCC#N)c3=O)cncc2nn1C [Example 797, 3-(6-(2-chloro-4-fluorophenyl)-3-(2,3-dimethyl-2H-pyrazolo[3,4-c]pyridin-4-yl)-2,4-dioxo-3,4-dihydrothieno[3,2-d]pyrimidin-1(2H)-yl)propanenitrile] | 7.46 | 6.97 | 
Cc1c2c(-n3c(=O)c4sc(-c5cc(F)c(F)cc5Cl)cc4n(CCC#N)c3=O)cncc2nn1C [Example 798] | 7.41 |  | 6.86
COc1cc(-c2cc3c(s2)c(=O)n(-c2cccnc2)c(=O)n3CCC#N)c(C#N)cc1F [Example 799] | 7.99 |  | 7.37
N#CCCn1c(=O)n(-c2cccnc2)c(=O)c2sc(-c3ccc(F)cc3Cl)cc21 [Example 800] | 7.49 |  | 6.94
N#CCCn1c(=O)n(-c2cccnc2)c(=O)c2sc(-c3ccccc3C#N)cc21 [Example 801] | 7.22 |  | 6.64
Cc1cncc(-n2c(=O)c3sc(-c4ccccc4C#N)cc3n(CC3(C#N)CC3)c2=O)c1 [Example 802] | 8.52 |  | 8.15
N#CCCn1c(=O)n(-c2cccnc2)c(=O)c2sc(-c3cc(F)c(F)cc3Cl)cc21 [Example 803] | 7.59 |  | 7.04
N#CCCn1c(=O)n(-c2cccnc2)c(=O)c2sc(-c3ccccc3Cl)cc21 [Example 804] | 7.85 |  | 7.35
Cc1noc(C)c1-c1cc2[nH]c(=O)n(-c3cncc4cnn(C)c34)c(=O)c2s1 [Example 805] | 6.15 |  | < 6.00
COc1cc(-c2cc3c(s2)c(=O)n(-c2cncc(Cl)c2C)c(=O)n3CCC#N)c(C#N)cc1F [Example 806] | 8.29 |  | 8.16
Cc1c(Cl)cncc1-n1c(=O)c2sc(-c3ccc(F)cc3Cl)cc2n(CCC#N)c1=O [Example 807] | 7.69 | 7.46 | 
Cc1c(Cl)cncc1-n1c(=O)c2sc(-c3ccc(F)cc3C#N)cc2n(CCC#N)c1=O [Example 808] | 7.13 |  | 6.74
Cc1ccc(C#N)cc1-c1cc2c(s1)c(=O)n(-c1cncc3cnn(C)c13)c(=O)n2CCC#N [Example 809] | 7.27 | 6.70 | 
Cc1ccc(C#N)cc1-c1cc2c(s1)c(=O)n(-c1cncc3ccccc13)c(=O)n2CCC#N [Example 810] | 7.70 |  | 7.06
Cn1ncc2cncc(-n3c(=O)c4sc(-c5cc(C#N)ccc5Cl)cc4n(CCC#N)c3=O)c21 [Example 811] | 7.88 | 7.27 | 
COc1cc(-c2cc3c(s2)c(=O)n(-c2cc(C)cnn2)c(=O)n3CCC#N)c(C#N)cc1F [Example 812] | 8.05 |  | 7.05
Cc1cnnc(-n2c(=O)c3sc(-c4ccccc4C#N)cc3n(CCC#N)c2=O)c1 [Example 813] | 7.49 |  | 6.44
COc1cncc(-n2c(=O)c3sc(-c4ccccc4C#N)cc3n(CCC#N)c2=O)c1 [Example 814] | 7.35 |  | 6.87
COc1cnc(Cl)c(-c2cc3c(s2)c(=O)n(-c2cncc(C(F)(F)F)c2)c(=O)n3CCC#N)c1 [Example 815] | 7.28 |  | 6.74
N#CCCn1c(=O)n(-c2cncc(OC(F)F)c2)c(=O)c2sc(-c3ccccc3C#N)cc21 [Example 816] | 7.24 |  | 6.47
N#CCCn1c(=O)n(-c2cncc(N3CCOCC3)c2)c(=O)c2sc(-c3ccccc3C#N)cc21 [Example 817] | < 6.00 |  | < 6.00
N#CCCn1c(=O)n(-c2cncc3ccccc23)c(=O)c2sc(-c3ccccc3Cl)cc21 [Example 818, 3-(6-(2-chlorophenyl)-3-(isoquinolin-4-yl)-2,4-dioxo-3,4-dihydrothieno[3,2-d]pyrimidin-1(2H)-yl)propanenitrile] | 8.12 | 8.21 | 
N#CCCn1c(=O)n(-c2cncc3ccccc23)c(=O)c2sc(-c3ccccc3C#N)cc21 [Example 819, 2-(1-(2-cyanoethyl)-3-(isoquinolin-4-yl)-2,4-dioxo-1,2,3,4-tetrahydrothieno[3,2-d]pyrimidin-6-yl)benzonitrile] | 7.99 | 7.95 | 
